# Experimental data reported in ChEMBL document CHEMBL4477257, “In vitro cytotoxicity of novel 2,5,7-tricarbo-substituted indoles derived from 2-amino-5-bromo-3-iodoacetophenone” (2016).
# Activity calls are given as the source filed them. The rule behind the calls is not given here.
# Key:
# MCF7 [1] = assay: Cytotoxicity against human MCF7 cells assessed as reduction in cell viability after 2 days by MTT assay; assay type: functional; conditions: MCF7, 48 h, read-out: LC50 (the source's name)
# HeLa [2] = assay: Cytotoxicity against human HeLa cells assessed as reduction in cell viability after 2 days by MTT assay; assay type: functional; conditions: 48 h, read-out: LC50 (the source's name)
# HeLa [3] = assay: Induction of apoptosis in human HeLa cells assessed as necrotic cells at 3 uM after 48 hrs by Annexin V/propidium iodide staining based flow cytometric analysis (reference value: 21.45 +/- 0.78 %); assay type: functional
# HeLa [4] = assay: Induction of apoptosis in human HeLa cells assessed as late apoptotic cells at 3 uM after 48 hrs by Annexin V/propidium iodide staining based flow cytometric analysis (reference value: 31.80 +/- 0.25 %); assay type: functional
# HeLa [5] = assay: Induction of apoptosis in human HeLa cells assessed as viable cells at 3 uM after 48 hrs by Annexin V/propidium iodide staining based flow cytometric analysis (reference value: 46.00 +/- 0.56 %); assay type: functional; conditions: read-out: Activity
# HeLa [6] = assay: Induction of apoptosis in human HeLa cells assessed as early apoptotic cells at 3 uM after 48 hrs by Annexin V/propidium iodide staining based flow cytometric analysis (reference value: 0.05 +/- 0.07 %); assay type: functional
# HeLa [7] = assay: Induction of apoptosis in human HeLa cells assessed as caspase 3 activation at 0.75 to 3 uM after 24 hrs by colorimetric analysis; assay type: functional, cell-based
# MCF7 [8] = assay: Cytotoxicity against human MCF7 cells assessed as cell viability at 2 uM after 2 days by MTT assay relative to control; assay type: functional; conditions: MCF7, 48 h, read-out: Activity
# MCF7 [9] = assay: Cytotoxicity against human MCF7 cells assessed as cell viability at 5 uM after 2 days by MTT assay relative to control; assay type: functional; conditions: MCF7, 48 h, read-out: Activity
# MCF7 [10] = assay: Cytotoxicity against human MCF7 cells assessed as cell viability at 20 uM after 2 days by MTT assay relative to control; assay type: functional; conditions: MCF7, 48 h, read-out: Activity
# MCF7 [11] = assay: Cytotoxicity against human MCF7 cells assessed as cell viability at 10 uM after 2 days by MTT assay relative to control; assay type: functional; conditions: MCF7, 48 h, read-out: Activity
# MCF7 [12] = assay: Cytotoxicity against human MCF7 cells assessed as cell viability at 1 uM after 2 days by MTT assay relative to control; assay type: functional; conditions: MCF7, 48 h, read-out: Activity
# MCF7 [13] = assay: Cytotoxicity against human MCF7 cells assessed as cell viability at 0.5 uM after 2 days by MTT assay relative to control; assay type: functional; conditions: MCF7, 48 h, read-out: Activity
# HeLa [14] = assay: Cytotoxicity against human HeLa cells assessed as cell viability at 20 uM after 2 days by MTT assay relative to control; assay type: functional; conditions: 48 h, read-out: Activity
# HeLa [15] = assay: Cytotoxicity against human HeLa cells assessed as cell viability at 10 uM after 2 days by MTT assay relative to control; assay type: functional; conditions: 48 h, read-out: Activity
# HeLa [16] = assay: Cytotoxicity against human HeLa cells assessed as cell viability at 5 uM after 2 days by MTT assay relative to control; assay type: functional; conditions: 48 h, read-out: Activity
# HeLa [17] = assay: Cytotoxicity against human HeLa cells assessed as cell viability at 2 uM after 2 days by MTT assay relative to control; assay type: functional; conditions: 48 h, read-out: Activity
# HeLa [18] = assay: Cytotoxicity against human HeLa cells assessed as cell viability at 1 uM after 2 days by MTT assay relative to control; assay type: functional; conditions: 48 h, read-out: Activity
# HeLa [19] = assay: Cytotoxicity against human HeLa cells assessed as cell viability at 0.5 uM after 2 days by MTT assay relative to control; assay type: functional; conditions: 48 h, read-out: Activity
smiles,measurement,setting,value
COc1cccc2c1C(=O)c1c(O)c3c(c(O)c1C2=O)C[C@@](O)(C(=O)CO)C[C@@H]3O[C@H]1C[C@H](N)[C@H](O)[C@H](C)O1.Cl [DOXORUBICIN HYDROCHLORIDE],CC50,MCF7 [1],1070 nM
same,CC50,HeLa [2],780 nM
same,Activity,HeLa [3],40.4%
same,Activity,HeLa [4],58.5%
same,viability at 3 µM,HeLa [5],1.55%
same,Activity,HeLa [6],0.95%
same,Activity,HeLa [7],Active
same,viability at 2 µM,MCF7 [8],38.4%
same,viability at 5 µM,MCF7 [9],34%
same,viability at 20 µM,MCF7 [10],24%
same,viability at 10 µM,MCF7 [11],27.5%
same,viability at 1 µM,MCF7 [12],44%
same,viability at 0.5 µM,MCF7 [13],66.4%
same,viability at 20 µM,HeLa [14],3.41%
same,viability at 10 µM,HeLa [15],4.43%
same,viability at 5 µM,HeLa [16],8.53%
same,viability at 2 µM,HeLa [17],39.2%
same,viability at 1 µM,HeLa [18],46%
same,viability at 0.5 µM,HeLa [19],62.8%
